# Data as given in patent publication US20210205264A1, “USE OF DELTA-TOCOTRIENOL FOR TREATING CANCER” (H. LEE MOFFITT CANCER CENTER & RESEARCH INSTITUTE INC., priority 2018, published 2021).
# Tests used:
# [1] = system: Oct4, Nanog, Sox2, KLF4, c-myc, c-PARP; assay: Western blot of stem cell transcription factors and c-PARP in CCSCs; type: cell-based, human
# CCSCs [2] = assay: Annexin V FITC/PI flow cytometry apoptosis assay in CCSCs; type: cell-based, human; conditions: 24 hours; d-T3 50 μM, aspirin 5 mM
# Procedure: (§1) FIGS. 10A, 10B, 10C, and 10D show induction of apoptosis measured by flow cytometry (FIG. 10A) and confocal microscopy (FIG. 10B) in CCSCs after treatment with vehicle, aspirin, d-T3, and aspirin+d-T3. Effect of BID inhibitor on apoptosis in CCSCs after treatment with aspirin or d-T3 (FIG. 10C). Induction oft-BID in CCSCs after treatment with vehicle, aspirin, d-T3, and aspirin+d-T3 (FIG. 10D).
# (§2) d-T3 can induce selective killing of CCSCs through the BH3 interacting-domain death agonist (BID). […] It should be noted that these in vitro results are consistent with the in vivo observation of the selective induction of apoptosis in APC mutant colon crypt cells in the ApcMin/+ mice but not in the normal intestinal cells of the AOM rat CRC model or NOD/SCID mice. […] Although the proapoptotic activity of d-T3 is a consistent observation of d-T3 anticancer activity in all of the published reports, the mechanism by which d-T3 induces apoptosis is poorly understood. Apoptotic death is regulated by the death receptor (extrinsic) and mitochondrial (intrinsic) pathways. These 2 pathways crosstalk under certain conditions through caspase-8-mediated cleavage of BID, a BH3-only Bcl-2 family member. The activated and truncated BID (tBID) then engages the intrinsic pathway for efficient apoptosis induction. To obtain preliminary information regarding the mechanisms by which d-T3 induces apoptosis in CCSCs, the activation of BID was measured after 24-hour treatment with vehicle, aspirin (5 mM), d-T3 (50 μM), and aspirin combined with d-T3 in CCSCs by Western blotting.
# NCM-460 = assay: Apoptosis induction in NCM-460; type: cell-based
# BID = assay: Activation of BID (tBID) by Western blotting in CCSCs; type: cell-based, human; conditions: 24-hour treatment; aspirin 5 mM, d-T3 50 μM
# Procedure: as §1
# as §2, with “These 2 pathways crosstalk under certain conditions through caspase-8-mediated cleavage of BID, a BH3-only Bcl-2 family member. The activated and truncated BID (tBID) then engages the intrinsic pathway for efficient apoptosis induction.” left out
# CCSCs [3] = assay: miRNA profiles in CCSCs; type: cell-based, human; conditions: 24-hour treatment; aspirin 5 mM, d-T3 10 μM
# Description: Given the results, and without intending to be bound by any theory, it appears that the induction of apoptosis can be one mechanism by which d-T3 prevents CRC and augments CRC prevention activity. BID knockout can diminish this effect. The biorepository as well as materials generated from studies can be used to explore other mechanisms of d-T3 action such as anti-inflammatory, mediation of the immune system, anti-angiogenesis, and alterations in metabolism. To this end, miRNA profiles were conducted that are altered with d-T3, aspirin, and d-T3 with aspirin treatment in CCSCs. To discover early miRNAs that are likely to influence activity, these cells were deliberately treated with doses of these agents at a duration when there were no phenotypic changes of apoptosis.
# hCAS = biological target: T1, hCAS (Homo sapiens, UniProt P55060); assay: hCAS protein levels in MiaPaCa-2 cells; type: cell-based
# T1 construct: endogenous in cells; host or cells: MiaPaCa-2 human pancreatic cancer cells
# T1 sequence (P55060 1-971): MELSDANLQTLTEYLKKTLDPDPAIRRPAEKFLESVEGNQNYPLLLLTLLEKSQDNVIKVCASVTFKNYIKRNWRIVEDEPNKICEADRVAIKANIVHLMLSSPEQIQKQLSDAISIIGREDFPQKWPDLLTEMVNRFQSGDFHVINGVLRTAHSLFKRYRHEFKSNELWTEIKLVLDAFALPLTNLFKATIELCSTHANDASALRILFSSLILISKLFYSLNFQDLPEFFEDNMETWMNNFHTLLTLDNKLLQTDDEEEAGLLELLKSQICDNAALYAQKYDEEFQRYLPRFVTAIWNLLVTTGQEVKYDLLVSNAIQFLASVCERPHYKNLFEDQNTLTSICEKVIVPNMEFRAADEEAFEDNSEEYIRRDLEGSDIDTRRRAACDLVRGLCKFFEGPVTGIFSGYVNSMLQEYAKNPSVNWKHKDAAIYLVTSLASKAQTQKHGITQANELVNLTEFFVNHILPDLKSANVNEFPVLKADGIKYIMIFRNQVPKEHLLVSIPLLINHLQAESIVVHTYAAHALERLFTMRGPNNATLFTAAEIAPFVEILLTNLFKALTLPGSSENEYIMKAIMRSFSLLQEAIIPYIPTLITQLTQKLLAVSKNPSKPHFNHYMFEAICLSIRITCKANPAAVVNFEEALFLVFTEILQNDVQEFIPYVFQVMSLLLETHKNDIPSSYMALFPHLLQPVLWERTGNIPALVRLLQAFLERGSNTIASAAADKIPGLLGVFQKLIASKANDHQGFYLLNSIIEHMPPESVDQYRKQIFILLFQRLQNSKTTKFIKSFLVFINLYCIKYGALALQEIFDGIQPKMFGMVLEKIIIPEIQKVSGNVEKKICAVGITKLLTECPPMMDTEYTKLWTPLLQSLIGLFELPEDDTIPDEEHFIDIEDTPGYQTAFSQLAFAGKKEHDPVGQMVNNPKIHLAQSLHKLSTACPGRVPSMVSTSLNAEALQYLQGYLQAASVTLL
# MiaPaCa-2 cell = MiaPaCa-2 cell viability at increasing concentrations; type: cell-based, human
# [4] = system: MiaPaCa-2 cells stably expressing hCAS; assay: Cell death in MiaPaCa-2 cells stably over-expressing hCAS; type: cell-based, human; conditions: hCAS over-expression, p<0.02
# Description: To determine whether hCAS over-expression can rescue from δ-T3 effects, MiaPaCa-2 cells stably expressing hCAS were generated by transfecting these cells with the hCAS gene-containing plasmid pCMV6-AC-GFP (Cat #RG211478, […]) and selecting the cells stably expressing hCAS under G418 pressure. MiaPaCa-2 cells expressing the same plasmid without the hCAS gene were also generated as empty vector control. […] The inability of over-expression to entirely overcome the effect of δ-T3 treatment further illustrates the robustness of a δ-T3 therapeutic approach.
# HPNE cells = assay: Anchorage-independent growth / colony formation of HPNE cells over-expressing hCAS; type: cell-based; conditions: d-T3 concentration escalation
compound,measurement,setting,value
"CC(C)=CCC/C(C)=C/CC/C(C)=C/CC[C@]1(C)CCc2cc(O)cc(C)c2O1 [d-T3, δ-tocotrienol]","expression of Oct4, Nanog, Sox2, KLF4, and c-myc",[1],downregulation
same,expression of c-PARP,[1],upregulation
same,induction of apoptosis,CCSCs [2],much more effective than aspirin
same,apoptosis,NCM-460,no effect
same,activation of tBID,BID,significantly activated
same,down-regulation of miRNAs compared with vehicle (number),CCSCs [3],9 miRNAs
same,up-regulation of miRNAs compared with vehicle (number),CCSCs [3],7 miRNAs
same,time at which decrease of hCAS levels starts,hCAS,6 h
same,time of maximum effect on hCAS levels,hCAS,24 to 48 h
same,hCAS levels,hCAS; d-T3 50 uM,decreases the hCAS levels
same,cell killing at 100 μM concentration,MiaPaCa-2 cell; 100 μM,killing almost all cells
same,effect on cell viability,MiaPaCa-2 cell; increasing concentrations,most potent
same,cancer cell death versus the hCAS vehicle,[4],induces significant cancer cell death
same,dose response on growth / colony formation,HPNE cells,potent dose-dependent effect
same,dose response on growth / colony formation,HPNE cells; listed as δ-T3,robust dose-response
